Test: xn = mol fraction of the nth substance listed
Settings: Liquid, Vibrating tube method

C1CC[C@H]2CCCC[C@H]2C1 [cis-decahydronaphthalene] + C1CC[C@H]2CCCC[C@@H]2C1
mass density [kg/m3]
Settings	x1 = 0.2	x1 = 0.35	x1 = 0.5	x1 = 0.65	x1 = 0.8	x1 = 1
303.15 K, 100 kPa	867.4	871.5	875.5	879.2	883.4	888.5
303.15 K, 5000 kPa	870.6	874.6	878.5	882.3	886.3	891.4
303.15 K, 10000 kPa	873.8	877.7	881.6	885.3	889.4	894.4
303.15 K, 15000 kPa	876.8	880.7	884.5	888.3	892.3	897.3
303.15 K, 20000 kPa	879.7	883.6	887.5	891.2	895.2	899.9
303.15 K, 25000 kPa	882.6	886.4	890.3	894	897.9	902.8
303.15 K, 30000 kPa	885.3	889.2	893	896.7	900.6	905.5
303.15 K, 35000 kPa	888	891.8	895.6	899.3	903.2	908
303.15 K, 40000 kPa	890.7	894.5	898.2	901.9	905.7	910.6
303.15 K, 45000 kPa	893.2	896.9	900.7	904.4	908.1	913
303.15 K, 50000 kPa	895.6	899.4	903	906.7	910.5	915.3
303.15 K, 55000 kPa	898	901.7	905.4	909	912.8	917.6
303.15 K, 60000 kPa	900.3	904	907.7	911.3	915.1	919.9
303.15 K, 65000 kPa	902.6	906.3	909.9	913.6	917.3	922.1
323.15 K, 100 kPa	852.1	856.3	860.2	864.2	868.1	873.2
323.15 K, 5000 kPa	855.9	859.9	863.7	867.6	871.6	876.5
323.15 K, 10000 kPa	859.4	863.3	867.1	870.9	874.9	879.8
323.15 K, 15000 kPa	862.7	866.6	870.4	874.2	878.1	883
323.15 K, 20000 kPa	865.9	869.8	873.5	877.3	881.2	886
323.15 K, 25000 kPa	869	872.9	876.5	880.3	884.2	889
323.15 K, 30000 kPa	872	875.8	879.4	883.2	887	891.8
323.15 K, 35000 kPa	874.9	878.7	882.3	886.1	889.8	894.6
323.15 K, 40000 kPa	877.6	881.5	885.1	888.7	892.6	897.3
323.15 K, 45000 kPa	880.4	884.2	887.7	891.4	895.2	899.9
323.15 K, 50000 kPa	882.9	886.7	890.3	894	897.7	902.4
323.15 K, 55000 kPa	885.5	889.2	892.8	896.4	900.2	904.8
323.15 K, 60000 kPa	888	891.8	895.3	899	902.7	907.3
323.15 K, 65000 kPa	890.5	894.2	897.7	901.3	905	909.6
343.15 K, 100 kPa	837.2	841.1	844.9	849	853.2	857.8
343.15 K, 5000 kPa	841.2	845	848.8	852.7	857	861.5
343.15 K, 10000 kPa	845	848.9	852.5	856.5	860.6	865.1
343.15 K, 15000 kPa	848.8	852.5	856.2	860	864.2	868.6
343.15 K, 20000 kPa	852.2	855.9	859.6	863.4	867.5	871.9
343.15 K, 25000 kPa	855.6	859.3	862.9	866.7	870.7	875.1
343.15 K, 30000 kPa	858.8	862.6	866.2	870	873.9	878.3
343.15 K, 35000 kPa	862	865.6	869.2	873	876.9	881.2
343.15 K, 40000 kPa	865	868.6	872.2	875.9	879.8	884.1
343.15 K, 45000 kPa	867.9	871.6	875.1	878.8	882.6	887
343.15 K, 50000 kPa	870.8	874.4	878	881.6	885.4	889.7
343.15 K, 55000 kPa	873.6	877.1	880.6	884.3	888	892.3
343.15 K, 60000 kPa	876.2	879.7	883.1	886.9	890.6	894.9
343.15 K, 65000 kPa	878.9	882.4	885.8	889.5	893.2	897.4

Source: the NIST ThermoML archive (doi:10.1016/j.fluid.2006.12.011)
